Measured values from patent US5945406A, “Therapeutic compounds with pyrimidine base” (Oxford Glycosciences (UK) Ltd., priority 1995, dated 1999).

Assays:
[1] = test system: human HepG2 flank tumours; assay: Efficacy in vivo: antitumour activity against subcutaneous human HepG2 flank tumours in nude mice (Example 20); design: species or system human tumour in nude mice; settings: for Average tumour size (at sacrifice): control 10.4; for Average tumour size (at sacrifice) / Number of mice surviving after tumour innoculation, day 17 / Number of mice surviving after tumour innoculation, day 25 / Number of mice surviving after tumour innoculation, day 30 / toxic side effects to the animals / appearance of treated animals / rate of disease progression in treated animals / survival time of treated mice over untreated animals: 1300 mg/kg; for Number of mice surviving after tumour innoculation, day 0: day 0 after tumour inoculation; for Number of mice surviving after tumour innoculation, day 17: day 17 after tumour inoculation; for Number of mice surviving after tumour innoculation, day 25: day 25 after tumour inoculation; for Number of mice surviving after tumour innoculation, day 30: day 30 after tumour inoculation
Procedure: Nude mice were inoculated with subcutaneous human HepG2 flank tumours to determine the antitumour activity of Compound 1 in vivo. After allowing the tumours to develop for the first seven days, we attempted to prevent tumour progression by seven ip treatments every 48 hours at doses of 1300 mg/kg.

nude mice [2] = settings: mouse, in vivo, ip
Procedure: The toxicity of Compound 1 (as described in Example 1) relative to 5-FU was determined in nude mice. Clinical grade 5-FU was used to provide a point of comparison with other toxicity studies in the literature. Animals were injected six times ip, in groups of 5, every 48 hours, with various doses of 5-FU or Compound 1.

nude mice [3] = settings: single bolus toxicity; NCI data base; cited from earlier work
[4] = seven ip treatments every 48 hours

Row | Compound | Average tumour size (at sacrifice) [1, 4] | Number of mice surviving after tumour innoculation, day 0 [1] [mice] | Number of mice surviving after tumour innoculation, day 17 [1, 4] [mice] | Number of mice surviving after tumour innoculation, day 25 [1, 4] [mice] | Number of mice surviving after tumour innoculation, day 30 [1, 4] [mice] | toxic side effects to the animals ([1]; in vivo, ip) | appearance of treated animals [1, 4] | rate of disease progression in treated animals [1, 4] | survival time of treated mice over untreated animals [1, 4] | MAD (maximal achievable dose) (nude mice [2]) [mg/kg] | appearance of treated animals ([1]; in vivo, ip) | LD10 (nude mice [3]) [mg/kg] | LD50 (nude mice [3]) [mg/kg] | toxic side effects to the animals [1, 4]
1 | 1-(β-L-2-Arabinopyranosyl)-5-fluorouracil and 1-(α-L-2-Arabinopyranosyl)-5-fluorouracil [Compound 6] | 6.2 | 5 | 4 | 2 | 2 | without causing any toxic side effects | very healthy appearance | significantly slowed the rate by which the disease progressed | increased survival time | – | – | – | – | –
2 | 1-β-D-Galactopyranosyl-5-fluorouracil and 1-α-D-Galactopyranosyl-5-fluorouracil [Compound 1] | 9.4 | 5 | 3 | 2 | 1 | without causing any toxic side effects | – | significantly slowed the rate by which the disease progressed | increased survival time | 1300 | very healthy appearance | – | – | –
3 | 1-β-L-Galactopyranosyl-5-fluorouracil and 1 -α-L-Galactopyranosyl-5-fluorouracil [Compound 2] | 5.6 | 5 | 5 | 3 | 2 | without causing any toxic side effects | – | significantly slowed the rate by which the disease progressed | increased survival time | – | very healthy appearance | – | – | –
4 | O=c1[nH]cc(F)c(=O)[nH]1 [Compound 5-FU, 5-Fluorouracil, reference compound] | 10.2 | 5 | 3 | 2 | 0 | – | – | – | – | – | – | 165 | 360 | –
5 | CC(=O)N[C@@H]1[C@@H](O)[C@@H](O)[C@@H](CO)O[C@H]1n1cc(F)c(=O)[nH]c1=O [Compound 10, 1-(β-D-2-Deoxy-2-N-acetylgalactopyranosyl)-5-fluorouracil] | 9 | 5 | 3 | 2 | 1 | – | very healthy appearance | significantly slowed the rate by which the disease progressed | increased survival time | – | – | – | – | without causing any toxic side effects
